One data set deals with Micrococcus luteus. The experiment in a line: Minimum inhibitory concentration (MIC) determination. It counts as cell-based. The procedure: (§1) The determination of minimum inhibitory concentrations was performed as described in J. Antimicrob. Chemother. 2001;48 Suppl 1:5-16.
Data set [1] relates to Chromobacterium violaceum. Described as above. Format: cell-based. The procedure: as §1
A further data set deals with Mycobacterium lacticola. The data set is described as above. Format: cell-based. As to the method: as §1
Another data set concerns E. faecalis 25912. The data set is described as above. Format: cell-based. Conditions: Enterococcus faecalis. As to the method: as §1
Data set [2] has as its system S. aureus MRS3 (clinical isolate of a multiresistant S. aureus). The data set is described as above. It counts as cell-based. Conditions: Staphylococcus aureus. As to the method: as §1
Another data set relates to Corynebact. fascians. The data set is described as above. It counts as cell-based. As to the method:
as §1

In another data set the test system is S. aureus 29213. Described as above. Format: cell-based. Conditions: Staphylococcus aureus. As to the method: as §1
A short description of data set [3]: Transformation of Elansolid A2 in solution. Format: physicochemical. The conditions noted are these: in solution (especially in DMSO).
Another data set relates to gram-positive bacteria. The experiment in a line: Elansolid C1: antibiotic spectrum against gram positive bacteria. Format: cell-based.

The structures appear in SMILES notation. ≈ marks a conversion by molar mass, not a printed value.

For orientation: MIC means the least concentration at which growth counts as inhibited. Higher therefore signals a less susceptible organism. With `CC1=CC2C(C3C1\C=C/C=C/C=C\C(O)C(C)C(O)C/C=C(C)/C=C/C(=O)OC3c1ccc(O)cc1)C(C)(C)CC2(C)O` (stereo not drawn) [Elansolid A2], the MIC in the data set on Micrococcus luteus was 0.2 mg/L (≈ 0.34 µM); in [1], 3.3 mg/L (≈ 5.6 µM); in the data set with Mycobacterium lacticola, 3.3 mg/L (≈ 5.6 µM); against E. faecalis 25912 it was 64 mg/L (≈ 109 µM); in data set [2] it was 0.8 mg/L (≈ 1.36 µM); in the data set on Corynebact. fascians, 1.6 mg/L (≈ 2.72 µM). Also, in the data set on S. aureus 29213, inhibition of growth (MIC) required 4 mg/L (≈ 6.79 µM). In addition, in [3], the transformation in solution entry is “transformed into Elansolid A1”.
For the compound `CC1=CC2C(C(C(Nc3ccccc3C(=O)O)c3ccc(O)cc3)C1\C=C/C=C/C=C\C(O)C(C)C(O)C/C=C(C)/C=C/C(=O)O)C(C)(C)CC2(C)O` (stereo not drawn) [Elansolid C1], the Inhibition zone amounted to 25 mm in the data set on gram-positive bacteria (Arthrobacter simplex); 20 mm with gram-positive bacteria (Bacillus polymyxa); 17 mm in the data set on gram-positive bacteria (Bacillus thuringiensis); 17 mm in the data set with gram-positive bacteria (Brevibact. ammoniagenes); 26 mm in the data set on gram-positive bacteria (Corynebact. fascians); 27 mm in the data set with gram-positive bacteria (Micrococcus luteus). Also, the Inhibition zone is 15 mm in the data set with gram-positive bacteria (Mycobact. chitae), 14 mm with gram-positive bacteria (Nocardia flava), 11 mm in the data set on gram-positive bacteria (Staph. aureus) and 14 mm in the data set with gram-positive bacteria (Streptococcus faecalis). Moreover, in the data set on gram-positive bacteria (selected gram-positive bacteria), the “activity against selected gram-positive bacteria” value is “bactericidal activity”. Moreover, the minimal inhibitory concentration (MIC) against Micrococcus luteus amounted to 0.4 mg/L (≈ 0.551 µM); in data set [2] it was 1.7 mg/L (≈ 2.34 µM).

The values are drawn from patent US20110034528A1, “Elansolids, Novel Natural Metabolites of Flexibacter and Antibiotically Active Derivatives Thereof” (priority 2008, published 2011).
